Patent publication US20260070895A1, “CRYSTALLINE FORMS” (QUIMATRYX, S.L., priority 2022, published 2026)

Key:
[1] = Genotoxicity (clastogenicity, aneugenicity); conditions: unlike other histone deacetylase inhibitors
[2] = Pharmacokinetic properties; assay type: in vivo; conditions: compared with other histone deacetylase inhibitors
[3] = Solubility and stability of QTX125 in aqueous solution (background); assay type: physicochemical
HDAC 6 = molecular target: T1, HDAC 6 (Homo sapiens, UniProt Q9UBN7); conditions: cited from earlier work
T1 sequence (Q9UBN7 1-1215): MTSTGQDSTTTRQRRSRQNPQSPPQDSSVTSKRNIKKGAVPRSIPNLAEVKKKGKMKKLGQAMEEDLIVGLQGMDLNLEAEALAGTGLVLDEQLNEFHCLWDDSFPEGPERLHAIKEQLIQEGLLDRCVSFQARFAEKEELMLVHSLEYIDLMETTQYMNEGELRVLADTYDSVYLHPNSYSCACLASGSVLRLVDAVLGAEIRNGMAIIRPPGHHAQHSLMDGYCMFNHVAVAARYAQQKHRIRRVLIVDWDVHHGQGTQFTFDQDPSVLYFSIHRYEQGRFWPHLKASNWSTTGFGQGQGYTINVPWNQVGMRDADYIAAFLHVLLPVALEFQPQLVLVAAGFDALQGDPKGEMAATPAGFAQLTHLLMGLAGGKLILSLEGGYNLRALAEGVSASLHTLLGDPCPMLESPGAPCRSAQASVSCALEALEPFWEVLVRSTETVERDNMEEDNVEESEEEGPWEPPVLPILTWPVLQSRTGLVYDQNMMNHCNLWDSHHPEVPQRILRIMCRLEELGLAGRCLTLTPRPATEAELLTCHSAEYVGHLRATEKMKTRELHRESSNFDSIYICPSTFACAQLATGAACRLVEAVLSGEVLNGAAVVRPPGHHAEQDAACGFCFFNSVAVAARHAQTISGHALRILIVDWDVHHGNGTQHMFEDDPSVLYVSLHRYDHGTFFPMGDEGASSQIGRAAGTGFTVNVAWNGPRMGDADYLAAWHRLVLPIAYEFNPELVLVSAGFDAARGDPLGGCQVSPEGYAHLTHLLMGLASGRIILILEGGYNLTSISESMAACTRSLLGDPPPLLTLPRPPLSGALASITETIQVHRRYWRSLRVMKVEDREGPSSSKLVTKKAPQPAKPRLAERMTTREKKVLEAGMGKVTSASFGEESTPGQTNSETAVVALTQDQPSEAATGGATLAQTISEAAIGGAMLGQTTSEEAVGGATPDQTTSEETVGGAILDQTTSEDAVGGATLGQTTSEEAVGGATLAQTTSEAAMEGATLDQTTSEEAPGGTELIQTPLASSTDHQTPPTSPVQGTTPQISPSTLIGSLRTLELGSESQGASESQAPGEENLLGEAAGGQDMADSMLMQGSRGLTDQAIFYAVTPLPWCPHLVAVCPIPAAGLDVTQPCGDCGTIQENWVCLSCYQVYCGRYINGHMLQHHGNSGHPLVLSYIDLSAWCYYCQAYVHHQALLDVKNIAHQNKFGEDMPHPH

[4] = system: mantle cell lymphoma, lung cancer and pancreatic cancer xenograft; conditions: lung cancer and pancreatic cancer xenograft murine models; cited from earlier work
[5] = system: multiple sclerosis mice models; conditions: two different multiple sclerosis mice models; cited from earlier work
[6] = hydroxamic acids such as QTX125; cited from earlier work
[7] = Photostability at solid state (chemical purity by HPLC after illumination); assay type: physicochemical; conditions: solid-state; for degradation (in words): up to 171 hours
Method: (§1) The method for determining purity by HPLC—used throughout these examples—used the following parameters:
(§2) The photostability of novel crystalline forms of QTX125 was assessed at solid state and in solution. Where ‘forced illumination’ conditions were used, samples were illuminated at 12 Klux/hour and 2.8 UV W/m^2/hour. Samples were stored at a temperature of 30° C. Following incubation, the chemical purity of QTX125 was measured by HPLC.
(§3) The following index is provided to aid navigation of the data presented in Tables 3.1.1 to 3.3.6: • 3.1.x—Assessment of the photostability of QTX125 Form 2. • 3.2.x—Assessment of the photostability of amorphous QTX125. • 3.3.x—Assessment of the photostability of the QTX125 1:2 L-Lysine adduct. • 3.x.1—Samples (at solid state) stored in unsealed clear glass bottles, subject to forced illumination. • 3.x.2—Samples (at solid state) sealed under nitrogen in clear glass bottles, subject to forced illumination. • 3.x.3—Samples (at solid state) sealed under nitrogen in amber glass bottles, illuminated under ambient laboratory conditions • 3.x.4—Samples (at solid state) sealed under nitrogen in amber glass bottles, subject to forced illumination. • 3.x.5—Samples (in solution) sealed under nitrogen in amber glass bottles, illuminated under ambient laboratory conditions. • 3.x.6—Samples (in solution) sealed under nitrogen in amber glass bottles, subject to forced illumination.

[8] = Photostability in solution (THF and water), HPLC; assay type: physicochemical; conditions: in solution (THF and water), sealed under nitrogen in amber glass bottles; for degradation (in words): up to 171 hours
Method: as §1, §2, §3

[9] = sealed under nitrogen in amber glass bottles, ambient laboratory conditions, 0 hours
[10] = sealed under nitrogen in amber glass bottles, ambient laboratory conditions, 3 hours
[11] = sealed under nitrogen in amber glass bottles, ambient laboratory conditions, 50 hours
[12] = sealed under nitrogen in amber glass bottles, ambient laboratory conditions, 171 hours
[13] = sealed under nitrogen in amber glass bottles, ambient laboratory conditions, 171 hours, listed as Amorphous
[14] = sealed under nitrogen in amber glass bottles, forced illumination, 0 hours
[15] = sealed under nitrogen in amber glass bottles, forced illumination, 3 hours
[16] = sealed under nitrogen in amber glass bottles, forced illumination, 50 hours
[17] = sealed under nitrogen in amber glass bottles, forced illumination, 171 hours
[18] = sealed under nitrogen in amber glass bottles, forced illumination, 171 hours, listed as Amorphous
[19] = sealed under nitrogen in clear glass bottles, forced illumination
[20] = sealed under nitrogen in clear glass bottles, forced illumination, 0 hours
[21] = sealed under nitrogen in clear glass bottles, forced illumination, 3 hours
[22] = sealed under nitrogen in clear glass bottles, forced illumination, 50 hours
[23] = sealed under nitrogen in clear glass bottles, forced illumination, 171 hours
[24] = unsealed clear glass bottles, forced illumination
[25] = unsealed clear glass bottles, forced illumination, 0 hours
[26] = unsealed clear glass bottles, forced illumination, 3 hours
[27] = unsealed clear glass bottles, forced illumination, 50 hours
[28] = unsealed clear glass bottles, forced illumination, 171 hours
[29] = ambient laboratory conditions, 0 hours
[30] = ambient laboratory conditions, 3 hours
[31] = ambient laboratory conditions, 50 hours
[32] = ambient laboratory conditions, 171 hours
[33] = ambient laboratory conditions, 171 hours, listed as Amorphous
[34] = forced illumination, 171 hours, listed as Amorphous

O=C(NO)c1ccc(CNC(=O)c2[nH]c(-c3ccc(O)cc3)cc2-c2ccoc2)cc1 [QTX125, 3-(3-furyl)-N-{4-[(hydroxyamino)carbonyl]benzyl}-5-(4-hydroxyphenyl)-1H-pyrrole-2-carboxamide]
genotoxicity, in particular clastogenicity or aneugenicity [1]: no evidence of genotoxicity | pharmacokinetic properties: half-lives and distribution volumes [2]: higher half-lives and distribution volumes | physical and chemical stability in solution [3]: physical and chemical instability | HDAC 6 inhibition (in words) (HDAC 6): highly selective and highly potent | antitumoral efficacy [4]: high antitumoral efficacy | efficacy in multiple sclerosis models [5]: high efficacy | solubility in water [6]: very low solubility

O=C(NO)c1ccc(CNC(=O)c2[nH]c(-c3ccc(O)cc3)cc2-c2ccoc2)cc1 [amorphous QTX125, 3-(3-Furyl)-N-{4-[(hydroxyamino)carbonyl]benzyl}-5-(4-hydroxyphenyl)-1H-pyrrole-2-carboxamide]
HPLC peak area, QTX125 RRT 1.00 [7, 9]: 96.74% | HPLC peak area, RRT 1.04 [7, 9]: 1.32% | HPLC peak area, RRT 1.12 [7, 9]: 0.35% | HPLC peak area, QTX125 RRT 1.00 [7, 10]: 96.75% | HPLC peak area, RRT 1.04 [7, 10]: 1.26% | HPLC peak area, RRT 1.12 [7, 10]: 0.36% | HPLC peak area, QTX125 RRT 1.00 [7, 11]: 96.61% | HPLC peak area, RRT 1.04 [7, 11]: 0.71% | HPLC peak area, RRT 1.12 [7, 11]: 0.39% | HPLC peak area, QTX125 RRT 1.00 [7, 12]: 96.16% | HPLC peak area, RRT 1.04 [7, 12]: 1.46% | HPLC peak area, RRT 1.12 [7, 12]: 0.39% | HPLC peak area, QTX125 RRT 1.00 [7, 13]: 96.16% | HPLC peak area, RRT 1.04 [7, 13]: 1.46% | degradation (in words) ([7]; sealed under nitrogen in amber glass bottles, ambient laboratory conditions): evidence of slight degradation | HPLC peak area, QTX125 RRT 1.00 [7, 14]: 96.74% | HPLC peak area, RRT 1.04 [7, 14]: 1.32% | HPLC peak area, RRT 1.12 [7, 14]: 0.35% | HPLC peak area, QTX125 RRT 1.00 [7, 15]: 96.94% | HPLC peak area, RRT 1.04 [7, 15]: 1.04% | HPLC peak area, RRT 1.12 [7, 15]: 0.35% | HPLC peak area, QTX125 RRT 1.00 [7, 16]: 96.12% | HPLC peak area, RRT 1.04 [7, 16]: 1.09% | HPLC peak area, RRT 1.12 [7, 16]: 0.38% | HPLC peak area, QTX125 RRT 1.00 [7, 17]: 94.43% | HPLC peak area, RRT 1.04 [7, 17]: 1.70% | HPLC peak area, RRT 1.12 [7, 17]: 0.47% | HPLC peak area, QTX125 RRT 1.00 [7, 18]: 94.43% | HPLC peak area, RRT 1.04 [7, 18]: 1.70% | HPLC peak area, RRT 1.12 [7, 18]: 0.47% | degradation (in words) ([7]; sealed under nitrogen in amber glass bottles, forced illumination): degrades slightly | colour change of the solid material [7, 19]: change in colour from off white/beige to brown | HPLC peak area, QTX125 RRT 1.00 [7, 20]: 96.74% | HPLC peak area, RRT 1.04 [7, 20]: 1.32% | HPLC peak area, RRT 1.12 [7, 20]: 0.35% | HPLC peak area, QTX125 RRT 1.00 [7, 21]: 95.97% | HPLC peak area, RRT 1.04 [7, 21]: 1.51% | HPLC peak area, RRT 1.12 [7, 21]: 0.38% | HPLC peak area, QTX125 RRT 1.00 [7, 22]: 89.64% | HPLC peak area, RRT 1.04 [7, 22]: 4.38% | HPLC peak area, RRT 1.12 [7, 22]: 0.60% | HPLC peak area, QTX125 RRT 1.00 [7, 23]: 84.46% | HPLC peak area, RRT 1.04 [7, 23]: 6.61% | HPLC peak area, RRT 1.12 [7, 23]: 0.90% | degradation (in words) [7, 19]: degrades under forced illumination to two principal components | colour change of the solid material [7, 24]: change in colour from off white/beige to brown | HPLC peak area, QTX125 RRT 1.00 [7, 25]: 96.74% | HPLC peak area, RRT 1.04 [7, 25]: 1.32% | HPLC peak area, RRT 1.12 [7, 25]: 0.35% | HPLC peak area, QTX125 RRT 1.00 [7, 26]: 95.81% | HPLC peak area, RRT 1.04 [7, 26]: 1.61% | HPLC peak area, RRT 1.12 [7, 26]: 0.39% | HPLC peak area, QTX125 RRT 1.00 [7, 27]: 88.70% | HPLC peak area, RRT 1.04 [7, 27]: 4.64% | HPLC peak area, RRT 1.12 [7, 27]: 0.63% | HPLC peak area, QTX125 RRT 1.00 [7, 28]: 83.01% | HPLC peak area, RRT 1.04 [7, 28]: 7.15% | HPLC peak area, RRT 1.12 [7, 28]: 0.90% | degradation (in words) [7, 24]: degrades under forced illumination to two principal components | HPLC peak area, QTX125 RRT 1.00 [8, 29]: 96.74% | HPLC peak area, RRT 1.04 [8, 29]: 1.32% | HPLC peak area, RRT 1.12 [8, 29]: 0.35% | HPLC peak area, QTX125 RRT 1.00 [8, 30]: 92.10% | HPLC peak area, RRT 1.04 [8, 30]: 0.94% | HPLC peak area, RRT 1.12 [8, 30]: 0.48% | HPLC peak area, QTX125 RRT 1.00 [8, 31]: 95.89% | HPLC peak area, RRT 1.04 [8, 31]: 1.03% | HPLC peak area, RRT 1.12 [8, 31]: 0.54% | HPLC peak area, QTX125 RRT 1.00 [8, 32]: 91.98% | HPLC peak area, RRT 1.04 [8, 32]: 2.30% | HPLC peak area, RRT 1.12 [8, 32]: 1.14% | HPLC peak area, QTX125 RRT 1.00 [8, 33]: 91.98% | HPLC peak area, RRT 1.04 [8, 33]: 2.30% | HPLC peak area, RRT 1.12 [8, 33]: 1.14% | degradation (in words) ([8]; ambient laboratory conditions): degrades | HPLC peak area, QTX125 RRT 1.00 ([8]; forced illumination, 0 hours): 96.74% | HPLC peak area, RRT 1.04 ([8]; forced illumination, 0 hours): 1.32% | HPLC peak area, RRT 1.12 ([8]; forced illumination, 0 hours): 0.35% | HPLC peak area, QTX125 RRT 1.00 ([8]; forced illumination, 3 hours): 96.31% | HPLC peak area, RRT 1.04 ([8]; forced illumination, 3 hours): 0.92% | HPLC peak area, RRT 1.12 ([8]; forced illumination, 3 hours): 0.46% | HPLC peak area, QTX125 RRT 1.00 ([8]; forced illumination, 50 hours): 94.55% | HPLC peak area, RRT 1.04 ([8]; forced illumination, 50 hours): 1.27% | HPLC peak area, RRT 1.12 ([8]; forced illumination, 50 hours): 0.55% | HPLC peak area, QTX125 RRT 1.00 ([8]; forced illumination, 171 hours): 87.29% | HPLC peak area, RRT 1.04 ([8]; forced illumination, 171 hours): 2.33% | HPLC peak area, RRT 1.12 ([8]; forced illumination, 171 hours): 1.03% | HPLC peak area, QTX125 RRT 1.00 [8, 34]: 87.29% | HPLC peak area, RRT 1.04 [8, 34]: 2.33% | HPLC peak area, RRT 1.12 [8, 34]: 1.03% | degradation (in words) ([8]; forced illumination): degrades
